From PubChem BioAssay (NCI)
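Dose response: 5 concentrations. Exposure: 48 h. Format: 96-well plates. Endpoint: linear interpolation; highest concentration if not reached. The concentration for 50% growth inhibition is given as GI50. TGI: concentration producing complete growth inhibition.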

Key:
Assay in all cases: DTP human tumour cell line panel, 48 h
[1] = tested on: NCI-H23 lung
[2] = tested on: UACC-62 melanoma
[3] = tested on: HCT-15 colon
[4] = tested on: NCI/ADR-RES ovarian
[5] = tested on: HOP-92 NSCLC
[6] = tested on: HCT-116 colon
[7] = tested on: A498 renal
[8] = tested on: SF-539 CNS
[9] = tested on: MDA-MB-231 breast
[10] = tested on: SNB-75 CNS
[11] = tested on: HS 578T breast
[12] = tested on: HOP-62 NSCLC
[13] = tested on: CAKI-1 renal
[14] = tested on: OVCAR-3 ovarian
[15] = tested on: OVCAR-8 ovarian
[16] = tested on: SR leukemia
[17] = tested on: SNB-19 CNS
[18] = tested on: 786-0 renal
[19] = tested on: SW-620 colon
[20] = tested on: UACC-257 melanoma
[21] = tested on: MCF7 breast
[22] = tested on: OVCAR-4 ovarian
[23] = tested on: SF-268 CNS
[24] = tested on: RXF 393 renal
[25] = tested on: PC-3 prostate
[26] = tested on: EKVX NSCLC
[27] = tested on: SK-MEL-5 melanoma
[28] = tested on: BT-549 breast
[29] = tested on: COLO 205 colon
[30] = tested on: RPMI-8226 leukemia
[31] = tested on: SF-295 CNS
[32] = tested on: NCI-H522 lung
[33] = tested on: LOX IMVI melanoma
[34] = tested on: HL-60(TB) leukemia
[35] = tested on: ACHN renal
[36] = tested on: K-562 leukemia
[37] = tested on: KM12 colon
[38] = tested on: MOLT-4 leukemia
[39] = tested on: IGROV1 ovarian
[40] = tested on: HT29 colon
[41] = tested on: T-47D breast
[42] = tested on: OVCAR-5 ovarian
[43] = tested on: MDA-MB-435
[44] = tested on: UO-31 renal
[45] = tested on: A549 NSCLC
[46] = tested on: SK-OV-3 ovarian
[47] = tested on: SK-MEL-2 melanoma
[48] = tested on: MALME-3M melanoma
[49] = tested on: SK-MEL-28 melanoma
[50] = tested on: HCC-2998 colon
[51] = tested on: U251 CNS
[52] = tested on: DU-145 prostate
[53] = tested on: SN12C renal
[54] = tested on: M14 melanoma
[55] = tested on: TK-10 renal
[56] = tested on: NCI-H226 lung
[57] = tested on: NCI-H460 lung
[58] = tested on: CCRF-CEM leukemia

O=C(CCC(NC(=O)OCc1ccccc1)C(=O)OCc1ccccc1)Nc1ccc(OCc2ccccc2)cc1 (configuration not stated)
TGI [1]: > 31.6 µM
TGI [2]: > 31.6 µM
TGI [3]: 26.3 µM
TGI [4]: > 31.6 µM
TGI [5]: > 31.6 µM
TGI [6]: 17.1 µM
TGI [7]: > 10 µM
TGI [8]: > 31.6 µM
TGI [9]: 25.6 µM
TGI [10]: > 31.6 µM
TGI [11]: > 31.6 µM
TGI [12]: > 100 µM
TGI [13]: > 31.6 µM
TGI [14]: > 100 µM
TGI [15]: 20.2 µM
TGI [16]: > 31.6 µM
TGI [17]: > 31.6 µM
TGI [18]: 17.4 µM
TGI [19]: > 31.6 µM
TGI [20]: > 31.6 µM
TGI [21]: 19.9 µM
TGI [22]: > 31.6 µM
TGI [23]: > 31.6 µM
TGI [24]: > 31.6 µM
TGI [25]: 28.4 µM
TGI [26]: > 31.6 µM
TGI [27]: > 10 µM
TGI [28]: > 10 µM
TGI [29]: > 31.6 µM
TGI [30]: > 10 µM
TGI [31]: > 31.6 µM
TGI [32]: > 100 µM
TGI [33]: > 31.6 µM
TGI [34]: > 31.6 µM
TGI [35]: > 31.6 µM
TGI [36]: > 31.6 µM
TGI [37]: > 31.6 µM
TGI [38]: > 31.6 µM
TGI [39]: > 31.6 µM
TGI [40]: > 31.6 µM
TGI [41]: > 31.6 µM
TGI [42]: > 100 µM
TGI [43]: > 31.6 µM
TGI [44]: > 10 µM
TGI [45]: > 31.6 µM
TGI [46]: > 31.6 µM
TGI [47]: > 10 µM
TGI [48]: > 31.6 µM
TGI [49]: > 31.6 µM
TGI [50]: > 31.6 µM
TGI [51]: 28 µM
TGI [52]: > 31.6 µM
TGI [53]: > 31.6 µM
TGI [54]: > 100 µM
TGI [55]: > 31.6 µM
TGI [56]: > 31.6 µM
TGI [57]: > 31.6 µM
TGI [58]: > 31.6 µM

Cn1cccc1-c1cc(-c2cccs2)nc(N)c1C#N
GI50 [1]: > 100 µM
TGI [1]: > 100 µM
GI50 [2]: 87 µM
TGI [2]: > 100 µM
GI50 [3]: > 100 µM
TGI [3]: > 100 µM
GI50 [4]: > 100 µM
TGI [4]: > 100 µM
GI50 [5]: > 100 µM
TGI [5]: > 100 µM
GI50 [6]: > 100 µM
TGI [6]: > 100 µM
GI50 [7]: > 100 µM
TGI [7]: > 100 µM
GI50 [8]: > 100 µM
TGI [8]: > 100 µM
GI50 [9]: > 100 µM
TGI [9]: > 100 µM
GI50 [10]: 46 µM
TGI [10]: > 100 µM
GI50 [11]: > 100 µM
TGI [11]: > 100 µM
GI50 [12]: > 100 µM
TGI [12]: > 100 µM
GI50 [13]: > 100 µM
TGI [13]: > 100 µM
GI50 [14]: > 100 µM
TGI [14]: > 100 µM
GI50 [15]: > 100 µM
TGI [15]: > 100 µM
GI50 [16]: 5.39 µM
TGI [16]: 68.2 µM
GI50 [17]: > 100 µM
TGI [17]: > 100 µM
GI50 [18]: > 100 µM
TGI [18]: > 100 µM
GI50 [19]: > 100 µM
TGI [19]: > 100 µM
GI50 [20]: > 100 µM
TGI [20]: > 100 µM
GI50 [21]: > 100 µM
TGI [21]: > 100 µM
GI50 [22]: > 100 µM
TGI [22]: > 100 µM
GI50 [23]: > 100 µM
TGI [23]: > 100 µM
GI50 [24]: > 100 µM
TGI [24]: > 100 µM
GI50 [25]: > 100 µM
TGI [25]: > 100 µM
GI50 [26]: > 100 µM
TGI [26]: > 100 µM
GI50 [27]: > 100 µM
TGI [27]: > 100 µM
GI50 [28]: > 100 µM
TGI [28]: > 100 µM
GI50 [29]: > 100 µM
TGI [29]: > 100 µM
GI50 [30]: > 100 µM
TGI [30]: > 100 µM
GI50 [31]: > 100 µM
TGI [31]: > 100 µM
GI50 [32]: > 100 µM
TGI [32]: > 100 µM
GI50 [33]: > 100 µM
TGI [33]: > 100 µM
GI50 [34]: > 100 µM
TGI [34]: > 100 µM
GI50 [35]: > 100 µM
TGI [35]: > 100 µM
GI50 [36]: > 100 µM
TGI [36]: > 100 µM
GI50 [37]: > 100 µM
TGI [37]: > 100 µM
GI50 [38]: > 100 µM
TGI [38]: > 100 µM
GI50 [39]: > 100 µM
TGI [39]: > 100 µM
GI50 [40]: > 100 µM
TGI [40]: > 100 µM
GI50 [41]: > 100 µM
TGI [41]: > 100 µM
GI50 [42]: > 100 µM
TGI [42]: > 100 µM
GI50 [43]: > 100 µM
TGI [43]: > 100 µM
GI50 [44]: > 100 µM
TGI [44]: > 100 µM
GI50 [45]: > 100 µM
TGI [45]: > 100 µM
GI50 [46]: > 100 µM
TGI [46]: > 100 µM
GI50 [47]: > 100 µM
TGI [47]: > 100 µM
GI50 [48]: > 100 µM
TGI [48]: > 100 µM
GI50 [49]: > 100 µM
TGI [49]: > 100 µM
GI50 [50]: > 100 µM
TGI [50]: > 100 µM
GI50 [51]: > 100 µM
TGI [51]: > 100 µM
GI50 [52]: > 100 µM
TGI [52]: > 100 µM
GI50 [53]: > 100 µM
TGI [53]: > 100 µM
GI50 [55]: > 100 µM
TGI [55]: > 100 µM
GI50 [56]: > 100 µM
TGI [56]: > 100 µM
GI50 [57]: > 100 µM
TGI [57]: > 100 µM
GI50 [58]: > 100 µM
TGI [58]: > 100 µM
